From patent publication US8039668B2, “Naphthalene-based inhibitors of anti-apoptotic proteins” (Burnham Institute for Medical Research, priority 2008, dated 2011)
Read-outs that look alike come from different tables or passages of the source.

Assays:
[1] = tested on: H460 human lung cell line; assay: Cell viability, ATP-LITE assay; format: cell-based; conditions: Homo sapiens
Method: (§1) The activity of the compounds against human cancer cell lines (PC3ML, H460, H1299, RS11846) were assessed by using the ATP-LITE assay (PerkinElmer). All cells were seeded in either F12 or RPMI1640 medium with 5 mM L-glutamine supplemented with 5% fetal bovine serum (Mediatech Inc.), penicillin and streptomycin (Omega). For maintenance, cells were cultured in 5% FBS. Cells plated into 96 well plates at varying initial densities depending on doubling time. H460 and H1299 plated at 2000 cells/well, A549 and PC3 at 3000 cells/well, and RS118456S at 10,000 cells/well. Compounds were diluted to final concentrations with 0.1% DMSO. Prior to dispensing compounds onto cells, fresh 5% media was placed into wells. Administration of compounds occurred 24 hours after seeding into the fresh media. Cell viability was evaluated using ATP-LITE reagent (PerkinElmer) after 72 hours of treatment. Data were normalized to the DMSO control-treated cells using Prism version 5.01 (Graphpad Software).

[2] = target: BCL-XL (Homo sapiens, UniProt Q07817); assay: 1D 1H-NMR binding assay; set-up: key to 1D-^1H NMR: +++, Very Active; ++, Active; +, Mild; −, Weak; conditions: for 1D-^1H NMR: BCL-XL 25 μM, compound 200 μM; for 1D ^1H-NMR Binding Assay (BCL-XL): Table 9
BCL-XL, sequence (Q07817 whole entry): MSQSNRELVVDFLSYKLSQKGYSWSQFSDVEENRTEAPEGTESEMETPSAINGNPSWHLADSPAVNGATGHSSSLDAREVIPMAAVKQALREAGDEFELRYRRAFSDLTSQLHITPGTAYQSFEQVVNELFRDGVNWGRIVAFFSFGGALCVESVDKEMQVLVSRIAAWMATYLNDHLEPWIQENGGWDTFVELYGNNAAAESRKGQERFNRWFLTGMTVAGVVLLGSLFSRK
Method: By observing the aliphatic region of the spectra, binding could be readily detected due to chemical shift changes in active site methyl groups of Ile, Leu, Thr, Val or Ala (region between −0.8 and 0.3 ppm). All experiments were performed with a 600 MHz spectrometer Bruker Avance 600 equipped with four rf channels and z-axis pulse-field gradients.

[3] = tested on: H1299 cell line; assay: Cell viability, ATP-LITE assay; format: cell-based, human; conditions: Homo sapiens
Method: as §1

[4] = tested on: human lymphoma RS11846 cell line; assay: Apoptosis, Annexin V-FITC and propidium iodide assay; format: cell-based; conditions: for EC50: Homo sapiens
Method: The apoptotic activity of the compounds against RS11846 cells was assessed by staining with Annexin V- and propidium iodide (PI). Lymphoma cell line, RS11846, was cultured in RPMI 1640 medium (Mediatech Inc., Herndon, Va. 20171) containing 10% fetal bovine serum (Mediatech Inc., Herndon, Va. 20171) and Penicillin/Streptomycin (Mediatech Inc., Herndon, Va. 20171). […] The percentage of viable cells was determined by FITC-Annexin V- and propidium iodide (PI)-labeling, using an Apoptosis Detection kit (BioVision Inc.), and analyzing stained cells by flow cytometry (FACSort; Bectin-Dickinson, Inc.; Mountain View, Calif.). Cells that were annexin-V-negative and PI-negative were considered viable.

[5] = tested on: PC3ML cells; assay: Cell viability, ATP-LITE assay; format: cell-based, human; conditions: Homo sapiens, PC3-ML, ATP-LITE assay
Method: as §1

[6] = tested on: B6Bcl-2 transgenic mice
Method: Transgenic mice expressing BCL-2 have been described as the B6 line. The BCL-2 transgene res a minigene version of a t(14;18) translocation in which the human BCL-2 gene is fused with the immunoglobulin heavy-chain (IgH) locus and associated IgH enhancer. The transgene was propagated on the Balb/c background.
After 24 hours, B6BCL2 mice were sacrificed by intraperitoneal injection of lethal dose of Avertin. Spleen was removed and weighed. […] Spleen tissue was fixed in z-FIX for 3 days and rinsed in PBS, and saved for histological analysis of spleen (H&E staining and TUNEL assay).

[7] = NCI-H1299, heading: EC50 H1299, Table 3, ATP-LITE assay, read-out: EC50 H1299
[8] = NCI-H460, heading: EC50 H460, Table 3, ATP-LITE assay, read-out: EC50 H460
[9] = Table 3, Annexin V-FITC and propidium iodide assay, heading: EC50 RS11846, read-out: EC50 RS11846
[10] = Table 3, heading: EC50 PC3ML, read-out: EC50 PC3ML
[11] = read-out: EC50 RS11846, Table 3, Annexin V-FITC and propidium iodide assay
[12] = NCI-H1299, read-out: EC50 H1299
[13] = NCI-H460, ATP-LITE assay, read-out: EC50 H460
[14] = Annexin V-FITC and propidium iodide assay, read-out: EC50 RS11846
[15] = NCI-H1299, ATP-LITE assay, read-out: EC50 H1299

Cc1cc2c(C(=O)Nc3ccccc3)c(O)c(O)cc2c(O)c1-c1c(C)cc2c(C(=O)Nc3ccccc3)c(O)c(O)cc2c1O [Compound 8a, 1,1′,6,6′,7,7′-hexahydroxy-3,3′-dimethyl-N^5,N^5′-diphenyl-2,2′-binaphthyl-5,5′-dicarboxamide]
EC50 ([1]; NCI-H460, Table 3, ATP-LITE assay, heading: EC50 H460, read-out: EC50 H460): 3.5 µM
1D-^1H NMR ([2]; Table 3): +
EC50 [3, 7]: 8 µM

Cc1cc2c(C(=O)NC3CCCC3)c(O)c(O)cc2c(O)c1-c1c(C)cc2c(C(=O)NC3CCCC3)c(O)c(O)cc2c1O [Compound 8b, N^5,N^5′-dicyclopentyl-1,1′,6,6′,7,7′-hexahydroxy-3,3′-dimethyl-2,2′-binaphthyl-5,5′-dicarboxamide]
EC50 [1, 8]: 8.5 µM
1D-^1H NMR ([2]; Table 3): +
EC50 [4, 9]: 13.7 µM
EC50 [3, 7]: 8 µM
EC50 [5, 10]: 12.2 µM

Cc1cc2c(C(=O)Nc3ccc(Oc4ccccc4)cc3)c(O)c(O)cc2c(O)c1-c1c(C)cc2c(C(=O)Nc3ccc(Oc4ccccc4)cc3)c(O)c(O)cc2c1O [Compound 8c, 1,1′,6,6′,7,7′-hexahydroxy-3,3′-dimethyl-N^5,N^5′-bis(4-phenoxyphenyl)-2,2′-binaphthyl-5,5′-dicarboxamide]
EC50 [1, 8]: 10.1 µM
1D-^1H NMR ([2]; Table 3): +
EC50 [4, 9]: 10.8 µM
EC50 [3, 7]: 17 µM
EC50 [5, 10]: 8.5 µM

CCc1cccc(NC(=O)c2c(O)c(O)cc3c(O)c(-c4c(C)cc5c(C(=O)Nc6cccc(CC)c6)c(O)c(O)cc5c4O)c(C)cc23)c1 [Compound 8d, N^5,N^5′-bis(3-ethylphenyl)-1,1′,6,6′,7,7′-hexahydroxy-3,3′-dimethyl-2,2′-binaphthyl-5,5′-dicarboxamide]
EC50 [1, 8]: 4.1 µM
1D-^1H NMR ([2]; Table 3): +
EC50 [4, 9]: 4.7 µM
EC50 [3, 7]: 5 µM
EC50 [5, 10]: 8.3 µM

Cc1cc2c(C(=O)Nc3cccc(C(F)(F)F)c3)c(O)c(O)cc2c(O)c1-c1c(C)cc2c(C(=O)Nc3cccc(C(F)(F)F)c3)c(O)c(O)cc2c1O [Compound 8e, 1,1′,6,6′,7,7′-hexahydroxy-3,3′-dimethyl-N^5,N^5′-bis(3-(trifluoromethyl)phenyl)-2,2′-binaphthyl-5,5′-dicarboxamide]
EC50 [1, 8]: 16.7 µM
1D-^1H NMR ([2]; Table 3): +
EC50 [4, 9]: 12.6 µM
EC50 [3, 7]: 28.7 µM
EC50 [5, 10]: 12.2 µM

CCC(NC(=O)c1c(O)c(O)cc2c(O)c(-c3c(C)cc4c(C(=O)NC(CC)c5ccccc5)c(O)c(O)cc4c3O)c(C)cc12)c1ccccc1 (centres unmarked) [Compound 8f, 1,1′,6,6′,7,7′-hexahydroxy-3,3′-dimethyl-N^5,N^5′-bis(1-phenylpropyl)-2,2′-binaphthyl-5,5′-dicarboxamide]
EC50 [1, 8]: 1.5 µM
1D-^1H NMR ([2]; Table 3): +++
EC50 [4, 9]: 4.2 µM

Cc1cc2c(C(=O)NCc3ccccc3)c(O)c(O)cc2c(O)c1-c1c(C)cc2c(C(=O)NCc3ccccc3)c(O)c(O)cc2c1O [Compound 8g, N^5,N^5′-dibenzyl-1,1′,6,6′,7,7′-hexahydroxy-3,3′-dimethyl-2,2′-binaphthyl-5,5′-dicarboxamide]
EC50 ([1]; NCI-H460, read-out: EC50 H460): 4.6 µM
1D-^1H NMR ([2]; Table 3): +
EC50 [4, 11]: 9.3 µM
EC50 [3, 12]: 3.6 µM
EC50 ([5]; read-out: EC50 PC3ML, Table 3): 13.7 µM

Cc1cccc(CNC(=O)c2c(O)c(O)cc3c(O)c(-c4c(C)cc5c(C(=O)NCc6cccc(C)c6)c(O)c(O)cc5c4O)c(C)cc23)c1 [Compound 8h, 1,1′,6,6′,7,7′-hexahydroxy-3,3′-dimethyl-N^5,N^5′-bis(3-methylbenzyl)-2,2′-binaphthyl-5,5′-dicarboxamide]
EC50 [1, 8]: 2.9 µM
1D-^1H NMR ([2]; Table 3): +++
EC50 [4, 9]: 4.8 µM
EC50 [3, 7]: 3.1 µM
EC50 ([5]; Table 3, read-out: EC50 PC3ML): 10.2 µM

Cc1cc2c(C(=O)NCc3cccc(Cl)c3)c(O)c(O)cc2c(O)c1-c1c(C)cc2c(C(=O)NCc3cccc(Cl)c3)c(O)c(O)cc2c1O [Compound 8i, N^5,N^5′-bis(3-chlorobenzyl)-1,1′,6,6′,7,7′-hexahydroxy-3,3′-dimethyl-2,2′-binaphthyl-5,5′-dicarboxamide]
EC50 ([1]; NCI-H460, read-out: EC50 H460): 3.3 µM
1D-^1H NMR ([2]; Table 3): +++
EC50 [4, 11]: 7.3 µM
EC50 [3, 12]: 5.2 µM
EC50 ([5]; read-out: EC50 PC3ML, Table 3): 8.3 µM

Cc1cc2c(C(=O)NCC3CC3)c(O)c(O)cc2c(O)c1-c1c(C)cc2c(C(=O)NCC3CC3)c(O)c(O)cc2c1O [Compound 8l, N^5,N^5′-bis(cyclopropylmethyl)-1,1′,6,6′,7,7′-hexahydroxy-3,3′-dimethyl-2,2′-binaphthyl-5,5′-dicarboxamide]
1D-^1H NMR ([2]; Table 3): +
EC50 [4, 9]: > 10 µM

Cc1cccc(CCNC(=O)c2c(O)c(O)cc3c(O)c(-c4c(C)cc5c(C(=O)NCCc6cccc(C)c6)c(O)c(O)cc5c4O)c(C)cc23)c1 [Compound 8o, 1,1′,6,6′, 7,7′-hexahydroxy-3,3′-dimethyl-N^5,N^5′-bis(3-methylphenethyl)-2,2′-binaphthyl-5,5′-dicarboxamide]
EC50 ([1]; NCI-H460, Table 3, ATP-LITE assay, read-out: EC50 H460): 0.7 µM
1D-^1H NMR ([2]; Table 3): +
EC50 [4, 9]: 5.6 µM

Cc1cc2c(CC(C)C)c(O)c(O)cc2c(O)c1-c1c(C)cc2c(CC(C)C)c(O)c(O)cc2c1O [Compound 12a, 5,5′-diisobutyl-3,3′-dimethyl-2,2′-binaphthyl-1,1′,6,6′,7,7′-hexaol]
1D-^1H NMR ([2]; Table 4): +

Cc1cc2c(CCC(C)C)c(O)c(O)cc2c(O)c1-c1c(C)cc2c(CCC(C)C)c(O)c(O)cc2c1O [Compound 12b, 5,5′-diisopentyl-3,3′-dimethyl-2,2′-binaphthyl-1,1′,6,6′,7,7′-hexaol]
1D-^1H NMR ([2]; Table 4): +

Cc1cc2c(Cc3ccccc3)c(O)c(O)cc2c(O)c1-c1c(C)cc2c(Cc3ccccc3)c(O)c(O)cc2c1O [Compound 12d, 5,5′-dibenzyl-3,3′-dimethyl-2,2′-binaphthyl-1,1′,6,6′,7,7′-hexaol]
EC50 [1, 13]: 1.2 µM
1D-^1H NMR ([2]; Table 4): +
EC50 [4, 14]: 3.2 µM
EC50 [3, 15]: 1.28 µM
EC50 ([5]; read-out: EC50 PC3ML): 8.3 µM

Cc1cc2cc(O)c(O)cc2c(O)c1-c1c(C)cc2cc(O)c(O)cc2c1O [Compound 13, 3,3′-dimethyl-2,2′-binaphthyl-1,1′,6,6′,7,7′-hexaol]
EC50 [1, 13]: > 10 µM
Tox ([6]; Bcl-2 transgenic mouse, single ip injection 72 μmol/kg): 0
activity in transgenic mice model ([6]; single ip 72 μmol/kg): no activity
1D-^1H NMR ([2]; Table 4): −
EC50 [4, 14]: 24.5 µM
induction of apoptosis of the RS11846 cell line ([4]; in words): weak or no apoptosis
EC50 [3, 15]: 13.4 µM
EC50 ([5]; read-out: EC50 PC3ML): > 10 µM

CCC(C)C(=O)c1c(O)c(O)cc2c(O)c(-c3c(C)cc4c(C(=O)C(C)CC)c(O)c(O)cc4c3O)c(C)cc12 (centres unmarked) [Compound XIX, 1,1′-(1,1′,6,6′,7,7′-hexahydroxy-3,3′-dimethyl-2,2′-binaphthyl-5,5′-diyl)bis(2-methylbutan-1-one)]
1D ^1H-NMR Binding Assay (BCL-XL) [2]: +
EC50 ([4]; Table 9, read-out: RS11846 EC50 (Annexin V- and propidium iodide assay)): 17.1 µM

CCCCC(=O)c1c(O)c(O)cc2c(O)c(-c3c(C)cc4c(C(=O)CCCC)c(O)c(O)cc4c3O)c(C)cc12 [Compound XX, 1,1′-(1,1′,6,6′,7,7′-hexahydroxy-3,3′-dimethyl-2,2′-binaphthyl-5,5′-diyl)dipentan-1-one]
1D ^1H-NMR Binding Assay (BCL-XL) [2]: +
EC50 ([4]; read-out: RS11846 EC50 (Annexin V- and propidium iodide assay), Table 9): 11.7 µM
